For twelve compounds, IC50 results are on record in patent US9243002B2, “Tetracyclic heterocycle compounds and methods of use thereof for the treatment of hepatitis C” (priority 2013, dated 2016).

Assay [1] concerns HCV genotype 1b replicon. Description: HCV replicon assay, genotype 1b (cell ELISA for NS3/4A). The note with it: Hepatitis C virus, 96 h, read-out: 1b IC50 (nM), genotype 1b replicon cells, 96 hours incubation, NS3/4A ELISA. Format: cell-based, hepatitis C virus. The protocol: (§1) Measurement of inhibition by compounds was performed using the HCV replicon system. Several different replicons encoding different HCV genotypes or mutations were used. In addition, potency measurements were made using different formats of the replicon assay, including different ways of measurements and different plating formats. See Jan M. Vrolijk et al., A replicons-based bioassay for the measurement of interferons in patients with chronic hepatitis C, 110 J. VIROLOGICAL METHODS 201 (2003); Steven S. Carroll et al., Inhibition of Hepatitis C Virus RNA Replication by 2′-Modified Nucleoside Analogs, 278 (14) J. BIOLOGICAL CHEMISTRY 11979 (2003). However, the underlying principles are common to all of these determinations, and are outlined below.
(§2) Stable neomycin phosphotransferase encoding replicons-harboring cell lines were used, so all cell lines were maintained under G418 selection prior to the assay. Potency was deteremined using a cell ELISA assay with an antibody to the replicons encoded NS3/4a protease. See Caterina Trozzi et al., In Vitro Selection and Characterization of Hepatitis C Virus Serine Protease Variants Resistant to an Active-Site Peptide Inhibitor, 77 (6) J. Virol. 3669 (2003). To initiate an assay, replicon cells were plated in the presence of a dilution series of test compound in the absence of G418. Typically, the assays were performed in a 96-well plate formate for manual operation, or a 384-well plate format for automated assay. Replicon cells and compound were incubated for 96 hours. At the end of the assay, cells were washed free of media and compound, and the cells were then lysed. RNA was quantified indirectly through detection of replicon-encoded NS3/4A protein levels, through an ELISA-based assay with an antibody specific for NS3/4A. IC50 determinations were calculated as a percentage of a DMSO control by fitting the data to a four-parameter fit function and the data obtained for genotypes 1a and 1b using this method is provided in the table below.

Assay [2] has as its system HCV genotype 1a replicon. Put plainly: HCV replicon assay, genotype 1a (cell ELISA for NS3/4A). Format: cell-based, hepatitis C virus. The note with it: Hepatitis C virus, 96 h, read-out: 1a IC50 (nM), genotype 1a replicon cells, 96 hours incubation, NS3/4A ELISA. How it is done:
as §1, §2
Background: A replicon is a self-replicating genome or part of one, used to study replication in cells.

`CNC(=O)c1c(-c2ccc(F)cc2)oc2cc(N(C)S(C)(=O)=O)c(-c3ccc4c(n3)-c3cc5c(F)cccc5n3C(CN3CCC3)C4)cc12` (stereo not drawn) [Example 92]: the IC50 in assay [1] came out at 2.55 nM; in assay [2] it was 46.5 nM.
For the compound `CNC(=O)c1c(-c2ccc(F)cc2)oc2cc(N(C)S(C)(=O)=O)c(-c3ccc4c(n3)-c3cc5ncccc5n3CC4)cc12` [Example 77], the values for the IC50 in assay [1] and in assay [2] were 4.03 nM and 27.9 nM, respectively.
The corresponding values for `CNC(=O)c1c(-c2ccc(C(F)F)cc2)oc2cc(N(C)S(C)(=O)=O)c(-c3ccc4c(n3)-c3cc5c(F)cccc5n3CC4)cc12` [Example 29, 2-(4-(difluoromethyl)phenyl)-5-(11-fluoro-5,6-dihydroindolo[1,2-h][1,7]naphthyridin-2-yl)-N-methyl-6-(N-methylmethylsulfonamido)benzofuran-3-carboxamide] are 15.5 nM and 13.5 nM.
`CNC(=O)c1c(-c2ccc(F)cc2)oc2cc(N(C)S(C)(=O)=O)c(-c3ccc4c(n3)-c3cc5nc(OC)ccc5n3CC4)cc12` [Example 78]: the IC50 stood at 22.1 nM in assay [1] and 206 nM in assay [2].
On to `CNC(=O)c1c(-c2cnc(N3CCCC3)s2)oc2cc(N(C)S(C)(=O)=O)c(-c3ccc4c(n3)-c3cc5c(F)cccc5n3CC4)cc12` [Example 22], for which the IC50 in assay [1] was determined as 163 nM; in assay [2], 1450 nM.
Turning to `CNC(=O)c1c(-c2ccc(F)cc2)oc2cc(N(C)S(C)(=O)=O)c(-c3ccc4c(n3)-c3c(C)c5ccccc5n3CC4)cc12` [Example 76, 2-(4-fluorophenyl)-N-methyl-5-(12-methyl-5,6-dihydroindolo[1,2-h][1,7]naphthyridin-2-yl)-6-(N-methylmethylsulfonamido)benzofuran-3-carboxamide], the IC50 in assay [1] was 194 nM; in assay [2], 1000 nM.
The corresponding values for `CNC(=O)c1c(-c2ccc(F)cc2)oc2cc(N(C)S(C)(=O)=O)c(-c3ccc4c(n3)-c3cc5c(F)cccc5n3C(CF)C4)cc12` (stereo not drawn) [Example 96, 5-(11-fluoro-6-(fluoromethyl)-5,6-dihydroindolo[1,2-h][1,7]naphthyridin-2-yl)-2-(4-fluorophenyl)-N-methyl-6-(N-methylmethylsulfonamido)benzofuran-3-carboxamide] are 3.18 nM and 7.89 nM.
Consider `CNC(=O)c1c(-c2ccc(OC(F)F)nc2)oc2cc(N(C)S(C)(=O)=O)c(-c3ccc4c(n3)-c3cc5c(F)cccc5n3CC4)cc12` [Example 2], for which the IC50 in assay [1] came to 3.9 nM; in assay [2] it was 2.09 nM.
Turning to `CNC(=O)c1c(-c2ccc(F)cc2)oc2cc(N(C)S(C)(=O)=O)c(-c3ccc4c(n3)-c3cc5c(F)cccc5n3C4)cc12` [Example 88, 5-(10-fluoro-5H-pyrido[2′,3′:3,4]pyrrolo[1,2-a]indol-2-yl)-2-(4-fluorophenyl)-N-methyl-6-(N-methylmethylsulfonamido)benzofuran-3-carboxamide], the figures for the IC50 in assay [1] and in assay [2] were 9.43 nM and 8.73 nM, respectively.
For the compound `CNC(=O)c1c(-c2cnn3ncccc23)oc2cc(N(C)S(C)(=O)=O)c(-c3ccc4c(n3)-c3cc5c(F)cccc5n3CC4)cc12` [Example 24], the IC50 turned out to be 18.9 nM in assay [1] and 20 nM in assay [2].
In the case of `CNC(=O)c1c(-c2ccc(C)nc2)oc2cc(N(C)S(C)(=O)=O)c(-c3cc4c(cn3)CCn3c-4cc4c(F)cccc43)cc12` [Example 40], the IC50 in assay [1] came out at 17.1 nM; in assay [2], 16.6 nM.
Take `CNC(=O)c1c(-n2ccc(C)cc2=O)oc2cc(N(C)S(C)(=O)=O)c(-c3ccc4c(n3)-c3cc5c(F)cccc5n3CC4)cc12` [Example 32, 5-(11-fluoro-5,6-dihydroindolo[1,2-h][1,7]naphthyridin-2-yl)-N-methyl-2-(4-methyl-2-oxopyridin-1 (2H)-yl)-6-(N-methylmethylsulfonamido)benzofuran-3-carboxamide]: the IC50 is 3.95 nM in assay [1] and 10.6 nM in assay [2].
